According to publication PMC9322052, “Synthesis and Biological Activity Screening of Newly Synthesized Trimethoxyphenyl-Based Analogues as Potential Anticancer Agents” (Molecules, 2022):

System: HepG2 cells
Assay: Cell cycle analysis by PI staining / FACS
Assay type: cell-based, human
Details: 48 h
Protocol: It is well documented that exposure to microtubule targeting agents leads to the malformed mitotic spindle which eventually leads to cell cycle arrest at the G2/M phase and apoptosis induction. Thus, the effect of the selected candidate 9 on the cell cycle progression of the HepG2 cell line was examined by flow cytometry analysis (FACS). The HepG2 cell line was treated with the IC50 concentration of compound 9 for 48 h.
Cell cycle analysis in HepG2 cells was carried out by FACS analysis according to the manufacturer’s directions. See Section 3.3.3 in Supplementary Material.
Figure 3 Compound 9 induces G2/M phase disturbance in HepG2 cells. (A) HepG2 cells were treated with 1.38 μM of compound 9 for 48 h. […]
To measure the cytotoxic activity of the synthesized derivatives 2a-11 in hepatocel-lular carcinoma (HepG2) cell line (ATCC Cat No. HB-8065) as well as normal human liver cell line HL-7702 (ATCC Cat. No. 77402), cell viability assay was assessed using MTT assay method. […] The color inten-sity of the formazan product, which represents the growth condition of the cells, is quan-tified by using an ELISA plate reader (EXL 800, USA) at 570 nm absorbance. […]
Compounds 9, 10 and 11 were evaluated for their tubulin inhibitory activity levels according to the manufacturer’s instructions using # abcam Human Beta-tubulin simplestep […]

## COc1ccc(C2=N/C(=C\c3cc(OC)c(OC)c(OC)c3)C(=O)NN2c2ccccc2)cc1OC [Compound 9, (Z)-3-(3,4-Dimethoxyphenyl)-2-Phenyl-5-(3,4,5-Trimethoxybenzylidene)-1,2-Dihydro-1,2,4-Triazin-6(5H)-one]
HepG2, 1.38 μM (IC50), control 13.28%
  G2/M cell population percentage: 30.83%
HepG2, IC50 concentration
  fold increase in G2/M cell population compared to untreated control: ~3 fold
